These are literature values, as cited in patent US7132452B2, “Topical formulation having effects on alleviating pain/inflammation caused by herpes virus infection” (priority 2003, dated 2006).

For the compound `O=C(c1ccccc1)c1ccc2n1CCC2C(=O)O` (racemic) [ketorolac, (±)-5-benzoyl-2,3-dihydro-1H-pyrrolizine-1-carboxylic acid], the solubility in water entry was “very low solubility in water”.
On to `O=C(O)Cc1ccccc1Nc1c(Cl)cccc1Cl` [diclofenac, 2-(2,6-dichloro-anilino)-phenyl-acetic acid], for which the solubility in water entry is “relatively low solubility in water”.
On to `O=C(c1ccccc1)c1ccc2n1CCC2C(=O)O` (stereo not drawn) [ketorolac tromethamine], for which the solubility in water entry is reported as “much more water soluble than the free acid form of ketorolac”.
